Reference: patent US7410996B2, “3-aryloxy/thio-2,3-substituted propanamines and their use in inhibiting serotonin and norepinephrine reuptake” (Eli Lilly and Company, priority 2002, dated 2008)
pKi: −log10 of the molar value. Counter-ions that a name gives are not always drawn.

Tests used:
[1] = biological target: T1, human serotonin transporter (Homo sapiens, UniProt P31645); assay: [3H]-citalopram scintillation proximity binding assay (serotonin binding assay); conditions: read-out: Ki (SERT)
T1 construct: isolate and amplify each of the three full-length cDNAs from an appropriate cDNA library; expressed in transfected cells; host or cells: HEK293 cells, stably transfected (pcDNA3.1-type vector); membrane preparation
Description: (§1) Generation of Stable Cell-lines Expressing the Human Dopamine, Norepinephrine and Serotonin Transporters
(§2) Standard molecular cloning techniques were used to generate stable cell-lines expressing the human dopamine, norepinephrine and serotonin transporters. The polymerase chain reaction (PCR) was used in order to isolate and amplify each of the three full-length cDNAs from an appropriate cDNA library. Primers for PCR were designed using the following published sequence data:
Human serotonin transporter: GenBank L05568. Reference: Ramamoorthy S, Bauman A L, Moore K R, Han H, Yang-Feng T, Chang A S, Ganaphthy V and Blakely R D. Antidepressant- and cocaine-sensitive human serotonin transporter: Molecular cloning, expression, and chromosomal localization. Proceedings of the National Academy of Sciences of the USA (1993) volume 90, pages 2542-2546. […]
Membrane preparation is essentially similar to that for the norepinephrine transporter containing membranes as described above. […] The protein concentration of the membrane preparation was determined using a BCA protein assay reagent kit. […]
The microtitre plates were incubated at room temperature for 10 hours prior to reading in a Trilux scintillation counter. The results were analysed using an automatic spline fitting programme Multicalc, Packard, Milton Keynes, UK) to provide Ki (nM) values for each of the test compounds. […]

[2] = biological target: T2, human norepinephrine transporter (Homo sapiens, UniProt P23975); assay: [3H]-nisoxetine scintillation proximity binding assay (norepinephrine binding assay); conditions: read-out: Ki (NET)
T2 construct: isolate and amplify each of the three full-length cDNAs from an appropriate cDNA library; expressed in transfected cells; host or cells: HEK-293 cells, stably transfected (pcDNA3.1-type vector); membrane preparation
Description: as §1, §2
Human norepinephrine transporter: GenBank M65105. Reference: Pacholczyk T, Blakely, R D and Amara S G. Expression cloning of a cocaine- and antidepressant-sensitive human noradrenaline transporter. Nature (1991) volume 350, pages 350-354. […]
Cell pastes from large scale production of HEK-293 cells expressing cloned human norepinephrine transporters were homogenized in 4 volumes 50 mM Tris-HCl containing 300 mM NaCl and 5 mM KCl, pH 7.4. […] The protein concentration of the membrane preparation was determined using a bicinchoninic acid (BCA) protein assay reagent kit (available from Pierce). […]
The microtitre plates were incubated at room temperature for 10 hours prior to reading in a Trilux scintillation counter. The results were analysed using an automatic spline fitting programme (Multicalc, Packard, Milton Keynes, UK) to provide Ki values for each of the test compounds. […]

T1 sequence (P31645 whole entry): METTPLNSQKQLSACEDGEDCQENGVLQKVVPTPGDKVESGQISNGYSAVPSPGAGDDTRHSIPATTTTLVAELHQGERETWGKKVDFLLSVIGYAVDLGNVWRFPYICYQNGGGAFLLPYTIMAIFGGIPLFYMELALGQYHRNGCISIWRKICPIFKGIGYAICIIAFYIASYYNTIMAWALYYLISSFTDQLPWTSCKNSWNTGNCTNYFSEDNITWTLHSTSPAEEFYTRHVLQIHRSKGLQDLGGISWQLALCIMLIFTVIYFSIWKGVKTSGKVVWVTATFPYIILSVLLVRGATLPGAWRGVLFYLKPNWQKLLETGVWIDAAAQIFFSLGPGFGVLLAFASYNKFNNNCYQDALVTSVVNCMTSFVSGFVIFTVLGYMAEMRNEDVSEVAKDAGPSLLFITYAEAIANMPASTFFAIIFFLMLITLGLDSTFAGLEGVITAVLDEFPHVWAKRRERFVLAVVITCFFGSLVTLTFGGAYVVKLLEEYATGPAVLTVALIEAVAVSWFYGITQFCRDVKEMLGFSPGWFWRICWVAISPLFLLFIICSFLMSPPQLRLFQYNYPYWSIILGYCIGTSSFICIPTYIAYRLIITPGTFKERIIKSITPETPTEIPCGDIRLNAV
T2 sequence (P23975 whole entry): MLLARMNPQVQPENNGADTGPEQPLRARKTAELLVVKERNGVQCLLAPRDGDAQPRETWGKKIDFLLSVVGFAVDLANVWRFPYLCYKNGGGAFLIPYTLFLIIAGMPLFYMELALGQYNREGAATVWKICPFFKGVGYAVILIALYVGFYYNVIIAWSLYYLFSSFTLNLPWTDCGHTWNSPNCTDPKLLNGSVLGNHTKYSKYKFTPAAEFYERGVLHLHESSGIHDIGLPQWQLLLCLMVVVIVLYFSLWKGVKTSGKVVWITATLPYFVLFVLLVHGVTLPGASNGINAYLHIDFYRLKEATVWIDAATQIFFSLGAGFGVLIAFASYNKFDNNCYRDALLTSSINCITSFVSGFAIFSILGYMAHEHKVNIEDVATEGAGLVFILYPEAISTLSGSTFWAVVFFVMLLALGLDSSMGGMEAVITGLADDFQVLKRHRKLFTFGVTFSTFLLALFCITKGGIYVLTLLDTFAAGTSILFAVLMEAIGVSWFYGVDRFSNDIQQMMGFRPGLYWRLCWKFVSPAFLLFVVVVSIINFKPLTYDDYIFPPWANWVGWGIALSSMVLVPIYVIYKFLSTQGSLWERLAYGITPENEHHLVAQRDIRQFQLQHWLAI

pKi [1]: 8.96 | pKi [2]: 7.82
SMILES: CNC[C@@H](O)[C@@H](Oc1ccc(F)c2ccccc12)c1cccc(F)c1 [Example 32, (1S,2R)-1-(4-Fluoro-naphthalen-1-yloxy)-1-(3-fluoro-phenyl)-3-methylamino-propan-2-ol Hydrochloride]
